Measurements: ChEMBL document CHEMBL1201862, “PubChem BioAssay data set” (2004)
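Compound exposure: 48 hours, 5 concentrations, 96-well plates. Abbreviation: GI50, concentration required for 50% inhibition of growth.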 Activity calls are given as the source filed them. Cut-off read from the data, not from the text of the source: active = GI50 up to about 1.1 µM and inactive = higher.

Assays:
Assay in all cases: growth of human tumour cells (NCI), 48 h
HCC 2998 = tested on: HCC 2998
HCT-116 = tested on: HCT-116
TK-10 = tested on: TK-10
NCI-H460 = tested on: NCI-H460
UACC-257 = tested on: UACC-257
NCI/ADR-RES = tested on: NCI/ADR-RES
MDA-MB-231 = tested on: MDA-MB-231
T47D = tested on: T47D
SR = tested on: SR
UACC-62 = tested on: UACC-62
SK-OV-3 = tested on: SK-OV-3
SNB-19 = tested on: SNB-19
SK-MEL-5 = tested on: SK-MEL-5
NCI-H23 = tested on: NCI-H23
DU-145 = tested on: DU-145
OVCAR-5 = tested on: OVCAR-5
IGROV-1 = tested on: IGROV-1
SK-MEL-28 = tested on: SK-MEL-28
HOP-62 = tested on: HOP-62
ACHN = tested on: ACHN
BT-549 = tested on: BT-549
OVCAR-8 = tested on: OVCAR-8
SK-MEL-2 = tested on: SK-MEL-2
SW-620 = tested on: SW-620
HCT-15 = tested on: HCT-15
SN12C = tested on: SN12C
NCI-H522 = tested on: NCI-H522
HT-29 = tested on: HT-29
MDA-MB-435 = tested on: MDA-MB-435
KM12 = tested on: KM12
HL-60 = tested on: HL-60
MCF7 = tested on: MCF7
RXF 393 = tested on: RXF 393
U-251 = tested on: U-251
UO-31 = tested on: UO-31
786-0 = tested on: 786-0
A498 = tested on: A498
Malme-3M = tested on: Malme-3M
SF-295 = tested on: SF-295
CAKI-1 = tested on: CAKI-1
SNB-75 = tested on: SNB-75
MOLT-4 = tested on: MOLT-4
MDA-N = tested on: MDA-N
NCI-H226 = tested on: NCI-H226
A549 = tested on: A549
LOX IMVI = tested on: LOX IMVI
COLO 205 = tested on: COLO 205
M14 = tested on: M14
SF-539 = tested on: SF-539
RPMI-8226 = tested on: RPMI-8226
PC-3 = tested on: PC-3
K562 = tested on: K562
CCRF-CEM = tested on: CCRF-CEM
Hs-578T = tested on: Hs-578T
SF-268 = tested on: SF-268
HOP-92 = tested on: HOP-92
OVCAR-4 = tested on: OVCAR-4
EKVX = tested on: EKVX
OVCAR-3 = tested on: OVCAR-3

Measured: GI50

CC1(C)N=C(N)N=C(N)N1c1ccc(Cl)cc1
active: OVCAR-8 0.817 µM | 786-0 0.598 µM | A549 0.665 µM | K562 0.317 µM | SF-268 0.708 µM
7.11 µM: HCT-15
inactive: HCC 2998 9.02 µM | HCT-116 4.17 µM | TK-10 48.8 µM | NCI-H460 3.38 µM | UACC-257 26.5 µM | NCI/ADR-RES > 100 µM | MDA-MB-231 21.7 µM | T47D 35.1 µM | SR 1.36 µM | UACC-62 4.84 µM | SK-OV-3 27.4 µM | SNB-19 22.6 µM | SK-MEL-5 8.11 µM | NCI-H23 3.44 µM | DU-145 7.11 µM | OVCAR-5 15 µM | IGROV-1 2.23 µM | SK-MEL-28 37.1 µM | HOP-62 9.02 µM | ACHN 5.16 µM | BT-549 26.2 µM | SK-MEL-2 10 µM | SW-620 1.48 µM | SN12C 6.71 µM | NCI-H522 3.99 µM | HT-29 2.92 µM | MDA-MB-435 1.79 µM | KM12 8.73 µM | HL-60 15.4 µM | MCF7 15.6 µM | RXF 393 53.2 µM | U-251 1.3 µM | UO-31 47.2 µM | A498 58.6 µM | Malme-3M 26.2 µM | SF-295 3.33 µM | CAKI-1 19.1 µM | SNB-75 > 100 µM | MOLT-4 1.71 µM | MDA-N 1.51 µM | NCI-H226 85.5 µM | LOX IMVI 1.34 µM | COLO 205 7.06 µM | M14 4.88 µM | SF-539 4.42 µM | RPMI-8226 6.81 µM | PC-3 1.88 µM | CCRF-CEM 2.74 µM | Hs-578T > 100 µM | HOP-92 24.1 µM | OVCAR-4 > 100 µM | EKVX 26.7 µM

OC1(c2ccccc2)CSc2ncnn21 (centres undefined)
inactive: HCC 2998 > 100 µM | HCT-116 > 100 µM | TK-10 > 100 µM | NCI-H460 > 100 µM | UACC-257 > 100 µM | NCI/ADR-RES > 100 µM | MDA-MB-231 > 100 µM | T47D > 100 µM | SR > 100 µM | UACC-62 > 100 µM | SK-OV-3 > 100 µM | SNB-19 > 100 µM | SK-MEL-5 > 100 µM | NCI-H23 > 100 µM | DU-145 41.1 µM | IGROV-1 > 100 µM | HOP-62 > 100 µM | ACHN > 100 µM | BT-549 > 100 µM | OVCAR-8 > 100 µM | SK-MEL-2 > 100 µM | SW-620 > 100 µM | SN12C > 100 µM | OVCAR-3 > 100 µM | NCI-H522 > 100 µM | HT-29 > 100 µM | MDA-MB-435 > 100 µM | KM12 > 100 µM | HL-60 > 100 µM | MCF7 > 100 µM | RXF 393 > 100 µM | U-251 > 100 µM | UO-31 > 100 µM | 786-0 > 100 µM | A498 > 100 µM | Malme-3M > 100 µM | SF-295 > 100 µM | CAKI-1 > 100 µM | SNB-75 > 100 µM | MOLT-4 > 100 µM | MDA-N > 100 µM | NCI-H226 > 100 µM | A549 > 100 µM | LOX IMVI > 100 µM | COLO 205 > 100 µM | M14 > 100 µM | SF-539 > 100 µM | PC-3 > 100 µM | K562 > 100 µM | CCRF-CEM > 100 µM | Hs-578T > 100 µM | SF-268 > 100 µM | HOP-92 > 100 µM | OVCAR-4 > 100 µM | EKVX > 100 µM
> 100 µM: HCT-15
